The values below come from US5591849A, “Spiro[naphthalene-2(1H),2'-piperidine] and their use” (Takeda Chemical Industries, Ltd., priority 1994, dated 1997).

pIC50: −log10 of the molar value. Counter-ions that a name gives are not always drawn.

In the first assay the test system is 45Ca2+ uptake. Description: 45Ca2+ uptake inhibition experiments (veratrine-stimulated, rat cerebral cortex crude synaptosome fraction). The format is biochemical. The following applies: stimulated by 30 μM veratrine, rat cerebral cortex synaptosomes. Here is the method:
^45 Ca^2+ uptake inhibition experiments
Rat cerebral cortex was homogenized with a 10-fold volume of 0.32M sucrose solution to yield a crude synaptosome fraction (100×g for 10 minutes, 12,000×g for 20 minutes). This fraction was homogenized in Tris buffer [neutralized with 132 mM sodium chloride, 5 mM potassium chloride, 1.3 mM magnesium chloride, 1.2 mM sodium dihydrogen phosphate, 1.2 mM calcium chloride, 10 mM glucose and 20 mM Tris base, saturated with a mixed gas (95% oxygen and 5% carbon dioxide)]. To 900 μl of this suspension, a DMSO solution (10 μl ) of the test drug was added, followed by 10 minutes of incubation at 37° C. 100 μl (final concentration 30μM) of a veratrine solution (containing 0.18 μci ^45 Ca^2+) was then added, followed by 10 minutes of incubation at 37° C. Subsequently, the reaction mixture was quenched by the addition of 4 ml of an ice cooled EGTA solution (120 mM sodium chloride, 5 mM potassium chloride, 5 mM EGTA, pH 7.5), and subjected to aspiration filtration through a GF/B filter; the filter was washed with two 4 ml portions of a washing solution (132 mM sodium chloride, 5 mM potassium chloride, 1.3 mM magnesium chloride, 1.2 mM calcium chloride, 20 mM Tris base, pH 7.5). The radioactivity on the filter was measured by the liquid scintillation method.
^45 Ca^2+ uptake suppression rates were calculated as follows: [formula]
^45 Ca^2+ uptake stimulated by 30 μM veratrine for 10 minutes in the presence of test drug
B: ^45 Ca^2+ uptake in the absence of veratrine and in the presence of test drug
C: ^45 Ca^2 + uptake stimulated by 30 μM veratrine for 10 minutes in the absence of test drug
D: ^45 Ca^2 + uptake in the absence of veratrine and test drug
For the compound `COc1ccc2c(c1)CCC1(CCCCN1CCN1CCN(c3cccc(C(F)(F)F)c3)CC1)C2.Cl.Cl` (stereo not drawn) [Example 7-6, 1'-[2-(4-(3-Trifluoromethylphenyl)piperazine-1-yl)ethyl]-3,4-dihydro-6-methoxyspiro[naphthalene-2(1H),2'-piperidine] dihydrochloride], the “45Ca Uptake Inhibitory Activity (% inhibition at 10 μM)” value worked out at 106%.

With `COc1ccc2c(c1)CCC1(CCCCN1CCN1CCN(c3ccc(F)cc3)CC1)C2` (stereo not drawn) [Example 7-5, 1'-[2-(4-(4-Fluorophenyl)piperazine-1-yl)ethyl]-3,4-dihydro-6-methoxyspiro[naphthalene-2(1H),2'-piperidine]dihydrochloride], the “45Ca Uptake Inhibitory Activity (% inhibition at 10 μM)” value turned out to be 87%.

Consider `COc1ccc2c(c1)CCC1(CCCCN1CCN1CCN(c3ccccc3Cl)CC1)C2.Cl.Cl` (stereo not drawn) [Example 7-3, 1'-[2-(4-(2-Chlorophenyl)piperazine-1-yl)ethyl]-3,4-dihydro-6-methoxyspiro[naphthalene-2(1H),2'-piperidine] dihydrochloride], for which the “45Ca Uptake Inhibitory Activity (% inhibition at 10 μM)” value came to 95%.

Turning to `COc1ccc2c(c1)CCC1(CCCCN1CCCC1CCN(Cc3ccccc3)CC1)C2.Cl.Cl` (stereo not drawn) [Example 5-14, 3,4-Dihydro-6-methoxy-1'-[3-(1-phenylmethylpiperidin-4yl)propyl]spiro[naphthalene-2(1H),2'-piperidine] dihydrochloride], the “45Ca Uptake Inhibitory Activity (% inhibition at 10 μM)” value is 74%.

Take `COc1cccc(N2CCN(CCN3CCCCC34CCc3cc(OC)ccc3C4)CC2)c1.Cl.Cl` (stereo not drawn) [Example 7-1, 3,4-Dihydro-6-methoxy-1'-[2-(4-(3-methoxyphenyl)piperazine-1-yl)ethyl]spiro[naphthalene-2(1H),2'-piperidine] dihydrochloride]: the “45Ca Uptake Inhibitory Activity (% inhibition at 10 μM)” value is 90%.

On to `COc1ccc2c(c1)CCC1(CCCCN1CCN1CCC(c3ccccc3)CC1)C2.Cl.Cl` (stereo not drawn) [Example 7-9, 3,4-Dihydro-6-methoxy-1'-[2-(4-phenylpiperidine-1-yl)ethyl]spiro[naphthalene-2(1H),2'-piperidine] dihydrochloride], for which the “45Ca Uptake Inhibitory Activity (% inhibition at 10 μM)” value worked out at 109%.

On to `COc1ccc2c(c1)CCC1(CCCCN1CCCc1ccccc1)C2` (stereo not drawn) [Example 5-9, 3,4-Dihydro-6-methoxy-1'-(3-phenylpropyl)spiro[naphthalene-(1H),2'-piperidine] hydrochloride], for which the “45Ca Uptake Inhibitory Activity (% inhibition at 10 μM)” value was 92%.

Turning to `COc1ccc2c(c1)CCC1(CCCCN1CCOc1ccccc1)C2` (stereo not drawn) [Example 5-10, 3,4-Dihydro-6-methoxy-1'-(2-phenoxyethyl)spiro[naphthalene-(1H),2'-piperidine] hydrochloride], the “45Ca Uptake Inhibitory Activity (% inhibition at 10 μM)” value worked out at 88%.

Another assay has as its target T1, Monoamine oxidase B (MAO-B) (Rattus norvegicus, UniProt P19643).
T1 construct: Whole rat brains were homogenized in a 10-fold volume of ice cooled 0.32 mM sucrose solution; from tissue; host or cells: whole rat brain homogenate
T1 sequence (P19643 1-520): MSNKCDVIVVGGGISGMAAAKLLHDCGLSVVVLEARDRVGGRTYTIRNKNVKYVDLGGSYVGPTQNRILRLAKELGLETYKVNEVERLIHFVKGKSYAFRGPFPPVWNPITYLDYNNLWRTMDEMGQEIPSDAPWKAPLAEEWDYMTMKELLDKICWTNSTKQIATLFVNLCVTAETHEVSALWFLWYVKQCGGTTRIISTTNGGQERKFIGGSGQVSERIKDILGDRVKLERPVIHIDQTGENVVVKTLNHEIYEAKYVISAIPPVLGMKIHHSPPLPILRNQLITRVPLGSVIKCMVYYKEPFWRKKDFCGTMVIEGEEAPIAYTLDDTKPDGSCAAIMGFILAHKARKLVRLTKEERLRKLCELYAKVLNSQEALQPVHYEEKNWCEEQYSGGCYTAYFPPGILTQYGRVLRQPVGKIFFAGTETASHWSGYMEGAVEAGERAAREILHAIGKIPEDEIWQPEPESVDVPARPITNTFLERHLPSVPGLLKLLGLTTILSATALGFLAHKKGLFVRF
Description: Monoamine oxidase B (MAO-B) inhibitory activity. The format is biochemical.
Conditions: not given
Here is the method: Monoamine oxidase B (MAO-B) inhibitory activity
Whole rat brains were homogenized in a 10-fold volume of ice cooled […] sucrose solution and diluted with a 10-fold volume of 10 mM phosphate buffer (pH 7.4). To 90 μl of this enzyme specimen, 1 μl of the test drug solution was added, followed by 10 minutes of incubation at 37° C. To the mixture, 10 μM of 14C-phenylethylamine was added, followed by 5 minutes of incubation at 37° C. After the reaction was stopped by the addition of 20 μl of 3M hydrochloric acid, 1 ml of water-saturated toluene-ethyl acetate (1:1) was added. The radioactivity of the metabolite migrated in the organic layer was measured by the liquid scintillation method.
As usually defined, the pIC50 is the IC50 on a negative log10 scale, so that one unit is a factor of ten. Low values mean a high IC50, high ones a low IC50. For the compound `CCCN1CCCCC12CCc1cc(OCc3ccsc3)ccc1C2` (stereo not drawn) [Example 9-45, 3,4-Dihydro-1'-propyl-6-(3-thienylmethoxy)spiro[naphthalene-2(1H),2'-piperidine] hydrochloride], the negative logarithm of the IC50 (pIC50) is 7.22.
